Experimental data as given in patent US12391672B2, “Solid forms comprising (S)-4-(4-(4-(((2-(2,6-dioxopiperidin-3-yl)-1-oxoisoindolin-4-yl)oxy)methyl)benzyl)piperazin-1-yl)-3-fluorobenzonitrile and salts thereof, and compositions comprising and methods of using the same” (Celgene Corporation, priority 2019, dated 2025).
Entries after “also recorded” stand apart in the source; their conditions may differ.

Tests used:
Format in all cases: physicochemical
[1] = Solubility of polymorphic forms in physiologically relevant media and final pH
Excerpt: Solubility data of the several polymorphic forms of Compound 1 in physiologically relevant media and the final pH of these solutions are summarized in the following tables.

[2] = Dynamic vapor sorption / hygroscopicity
Method in brief: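 Sample equilibrated at 50% r.h. on a microbalance, then one cycle at ±5% r.h. h^−1 spanning 0–95% r.h., with 5 h holds at 0% and 95% r.h. and 2 h holds at 50% r.h., run either desorption-first or sorption-first. Hygroscopicity classed from mass gain at 85% r.h. relative to initial mass.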

[3] = Solid state stability under accelerated storage conditions
Method in brief: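 Solid forms stored at 60 °C and 60 °C/75% RH (Form A 1 week, Form B 2 weeks); Form K held 14 d at 40 °C, 40 °C/75% RH, 60 °C, 60 °C/75% RH and light, versus refrigerated/ambient. Assessed by DSC/TGA, appearance, HPLC purity, chiral HPLC (S-isomer area %) and XRPD post-DVS.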

[4] = Mechanical stressing (grinding, compression); conditions: compressed under 2000 psi for 1 minute
Method: Mechanical stressing experiment: the following table describes three experiments involving mechanical stressing of Form A and/or Form B of free base Compound 1 by grinding with a mortar and pestle.
Shear Sensitivity: Form K was compressed under 2000 psi for 1 minute and analyzed by XRPD.

[5] = Competitive slurry and slurry stability experiments; conditions: acetone/water, water contents 5% vol. and higher, room temperature and 45° C.
Method: Form B was obtained at room temperature while form C was obtained at 45° C. in acetone alone.
The HBr salt was largely insoluble in various buffers when 1 mg/mL slurries were prepared and the mother liquor concentration determined (by HPLC): <0.05 mg/mL in all buffers tested.

N#Cc1ccc(N2CCN(Cc3ccc(COc4cccc5c4CN([C@H]4CCC(=O)NC4=O)C5=O)cc3)CC2)c(F)c1.O [Form K of a free base of Compound 1]
Solubility ([1]; FaSSIF): 1 µg/mL
Solubility ([1]; FeSSiF): 5 µg/mL
Solubility ([1]; SGF with pepsin): 420 µg/mL
Solubility ([1]; Water): <LOQ
Solubility ([1]; pH 1 buffer HC1/NaC1): 133 µg/mL
Solubility ([1]; pH 3 buffer (phosphate)): 90 µg/mL
Solubility ([1]; pH 4 buffer (acetate)): 11 µg/mL
Solubility ([1]; pH 5 buffer (acetate)): 1 µg/mL
Final pH ([1]; solubility sample in FaSSIF): 6.33
Final pH ([1]; solubility sample in FeSSiF): 5.02
Final pH ([1]; solubility sample in SGF with pepsin): 1.47
Final pH ([1]; solubility sample in Water): 6.71
Final pH ([1]; solubility sample in pH 1 buffer HC1/NaC1): 1.20
Final pH ([1]; solubility sample in pH 3 buffer (phosphate)): 3.09
Final pH ([1]; solubility sample in pH 4 buffer (acetate)): 3.98
Final pH ([1]; solubility sample in pH 5 buffer (acetate)): 5.01
plateau in water uptake ([2]; DVS sorption, corresponding to ~1 mole of water): ~3.2 % w/w
hygroscopicity ([2]; DVS, class by mass gain at 85% r.h.): slightly hygroscopic (slightly hygroscopic (mass increase of <2% but ≥0.2%))
solid form after DVS cycle ([2]; after the DVS humidity cycle): stable with respect to application of a DVS cycle
DVS mass increase ([2]; relative humidity from about 5% to about 95%): about 3.2%
Physical stability (DSC, PXRD, TGA) ([3]; 14 d at 40° C., 40° C./75% RH, 60° C., 60° C./75% RH, light chamber): there does not appear to be any major change in the crystal form and water content
physical and chemical stability ([3]; accelerated stability conditions): chemically and physically stable; also recorded: physically and chemically stable
Solid state chiral stability ([3]; accelerated stability conditions, initial 97.1 area % S-isomer): no change in the chiral stability
Solid state chemical stability (HPLC) ([3]; accelerated storage conditions, 14 d): no significant degradation was observed
Solid state chemical stability (HPLC), light ([3]; exposed to light (1.2 million lux)): Minor degradation
Shear Sensitivity (XRPD) [4]: remained as Form K
competitive slurry of Form B, Form C and Form K [5]: most stable form
